Usually logP stands for the decadic logarithm of the partition coefficient of the neutral form, usually between octanol and water. A high value points to a more lipophilic compound. Molecule `Clc1cc(Oc2c(Cl)c(Cl)c(Cl)c(Cl)c2Cl)c(Cl)c(Cl)c1Cl` displayed a logP of 8.07.

Turning to `Clc1cc(Cl)c(Oc2ccc(Cl)c(Cl)c2)c(Cl)c1`, the logP was 6.44.

`Clc1ccc(Cl)c(Oc2ccc(Cl)c(Cl)c2)c1`: the logP was found to be 6.11.

As for `Clc1ccc(Oc2cc(Cl)cc(Cl)c2)cc1`, the logP is 5.77.

As for `Clc1ccc(Cl)c(Oc2ccc(Cl)c(Cl)c2Cl)c1`, the logP stood at 6.51.

Turning to `Clc1cc(Oc2ccc(Cl)c(Cl)c2Cl)cc(Cl)c1Cl`, the logP is 6.99.

In the case of `Clc1ccc(Oc2ccc(Cl)c(Cl)c2)cc1Cl`, the logP was 6.36.

Turning to `Clc1cc(Cl)c(Oc2c(Cl)cccc2Cl)cc1Cl`, the logP came to 5.98.

In turn, `Clc1cccc(Oc2ccc(Cl)c(Cl)c2)c1` came in with a logP of 5.74.

For the molecule `Clc1ccc(Oc2c(Cl)cccc2Cl)cc1`, the logP was found to be 5.3.

In turn, `Clc1ccc(Oc2c(Cl)ccc(Cl)c2Cl)c(Cl)c1Cl` came in with a logP of 6.65.

As to `Clc1ccc(Cl)c(Oc2ccccc2)c1`, the logP is 5.13.

Turning to `Clc1cccc(Oc2ccc(Cl)cc2Cl)c1`, the logP came to 5.65.

`Clc1cc(Cl)c(Oc2cc(Cl)c(Cl)cc2Cl)cc1Cl`: the logP worked out at 6.72.

`Clc1cc(Cl)cc(Oc2cc(Cl)c(Cl)cc2Cl)c1` showed a logP of 6.66.

For the molecule `Clc1ccc(Oc2ccc(Cl)c(Cl)c2)cc1`, the logP came out at 5.88.

In turn, `Clc1ccc(Oc2cc(Cl)ccc2Cl)cc1` returned a logP of 5.66.

In turn, `Clc1ccc(Oc2c(Cl)cc(Cl)c(Cl)c2Cl)cc1` displayed a logP of 6.47.

As to `Clc1ccc(Oc2ccccc2Cl)c(Cl)c1`, the logP amounted to 4.96.

On to `Clc1cc(Cl)cc(Oc2ccccc2)c1`, for which the logP is 5.21.

As for `Clc1ccc(Oc2ccc(Cl)c(Cl)c2Cl)c(Cl)c1`, the logP amounted to 6.28.

As to `Clc1cc(Oc2cc(Cl)c(Cl)c(Cl)c2Cl)c(Cl)c(Cl)c1Cl`, the logP stood at 7.78.

Molecule `Clc1ccc(Cl)c(Oc2cc(Cl)c(Cl)cc2Cl)c1` returned a logP of 6.22.

The molecule `Clc1cccc(Oc2ccccc2)c1` displayed a logP of 4.75.

`Clc1cccc(Oc2ccccc2)c1Cl`: the logP stood at 5.

`Clc1cc(Cl)c(Oc2cc(Cl)c(Cl)cc2Cl)c(Cl)c1` showed a logP of 6.49.

`Clc1ccc(Oc2cccc(Cl)c2Cl)cc1Cl` gave a logP of 5.99.

Molecule `Clc1ccc(Oc2ccc(Cl)c(Cl)c2Cl)c(Cl)c1Cl` registered a logP of 6.82.

As for `Clc1ccc(Oc2ccc(Cl)c(Cl)c2)c(Cl)c1`, the logP was found to be 6.13.

Regarding `Clc1ccc(Oc2c(Cl)c(Cl)c(Cl)c(Cl)c2Cl)cc1`, the logP was determined as 6.95.

`Clc1ccc(Oc2ccccc2Cl)cc1Cl` returned a logP of 5.5.

Regarding `Clc1ccc(Oc2c(Cl)c(Cl)c(Cl)c(Cl)c2Cl)c(Cl)c1Cl`, the logP was determined as 7.84.

With `Clc1cc(Cl)c(Cl)c(Oc2ccc(Cl)c(Cl)c2Cl)c1`, the logP was 7.01.

Molecule `Clc1ccc(Oc2ccc(Cl)c(Cl)c2Cl)cc1` came in with a logP of 6.14.

`Clc1cc(Cl)c(Cl)c(Oc2ccccc2)c1Cl`: the logP worked out at 5.82.

In turn, `Clc1cc(Oc2cc(Cl)c(Cl)c(Cl)c2Cl)cc(Cl)c1Cl` displayed a logP of 7.55.

As for `Clc1ccc(Oc2ccccc2)c(Cl)c1`, the logP is 4.93.

The molecule `Clc1cc(Oc2c(Cl)c(Cl)cc(Cl)c2Cl)c(Cl)c(Cl)c1Cl` came in with a logP of 7.63.

In turn, `Clc1ccc(Oc2c(Cl)cc(Cl)c(Cl)c2Cl)cc1Cl` yielded a logP of 7.07.

`Clc1ccc(Oc2c(Cl)c(Cl)cc(Cl)c2Cl)cc1Cl` displayed a logP of 6.78.

In turn, `Clc1ccc(Oc2ccccc2)cc1` yielded a logP of 4.7.

Take `Clc1cc(Cl)cc(Oc2ccc(Cl)c(Cl)c2)c1`: the logP was 6.22.

In turn, `Clc1ccc(Oc2ccccc2)c(Cl)c1Cl` registered a logP of 5.55.

`Clc1ccc(Oc2c(Cl)ccc(Cl)c2Cl)cc1`: the logP is 5.88.

On to `Clc1ccc(Oc2ccc(Cl)cc2Cl)c(Cl)c1`, for which the logP came to 5.95.

As for `Clc1cc(Cl)c(Oc2cc(Cl)c(Cl)c(Cl)c2)cc1Cl`, the logP worked out at 7.11.

For `Clc1cccc(Oc2ccc(Cl)c(Cl)c2Cl)c1`, the logP came out at 6.07.

Consider `Clc1ccc(Oc2c(Cl)c(Cl)cc(Cl)c2Cl)c(Cl)c1Cl`, for which the logP came to 7.14.

On to `Clc1cc(Cl)c(Cl)c(Oc2ccccc2)c1`, for which the logP worked out at 5.62.

In turn, `Clc1ccc(Oc2cc(Cl)cc(Cl)c2Cl)cc1` showed a logP of 6.21.

`Clc1cc(Cl)c(Oc2cc(Cl)c(Cl)c(Cl)c2Cl)c(Cl)c1` showed a logP of 7.31.

With `Clc1cc(Cl)c(Cl)c(Oc2ccc(Cl)c(Cl)c2)c1`, the logP turned out to be 6.52.

For `Clc1ccc(Oc2cc(Cl)c(Cl)c(Cl)c2Cl)cc1`, the logP was found to be 6.61.

As to `Clc1ccccc1Oc1ccc(Cl)c(Cl)c1Cl`, the logP was 5.72.

`Clc1cc(Oc2c(Cl)ccc(Cl)c2Cl)c(Cl)c(Cl)c1Cl` had a logP of 6.98.

The molecule `Clc1cc(Cl)c(Oc2c(Cl)ccc(Cl)c2Cl)cc1Cl` showed a logP of 6.47.

On to `Clc1cccc(Cl)c1Oc1ccccc1`, for which the logP was 4.64.

In turn, `Clc1ccc(Cl)c(Oc2ccccc2)c1Cl` had a logP of 5.35.

Regarding `Clc1ccc(Oc2cc(Cl)c(Cl)c(Cl)c2Cl)c(Cl)c1`, the logP stood at 6.72.

The molecule `Clc1ccc(Oc2cc(Cl)c(Cl)c(Cl)c2Cl)c(Cl)c1Cl` displayed a logP of 7.28.

Molecule `Clc1ccc(Oc2c(Cl)cc(Cl)cc2Cl)cc1` registered a logP of 5.92.

Regarding `Clc1ccc(Oc2cc(Cl)ccc2Cl)c(Cl)c1`, the logP was found to be 5.78.

Molecule `Clc1cc(Cl)c(Oc2ccccc2Cl)cc1Cl` displayed a log partition coefficient (logP) of 5.97.

For the molecule `Clc1ccc(Oc2ccc(Cl)cc2)cc1`, the logP amounted to 5.25.

For `Clc1cccc(Oc2ccc(Cl)c(Cl)c2Cl)c1Cl`, the logP worked out at 6.3.

In the case of `Clc1ccc(Oc2ccccc2Cl)cc1`, the logP worked out at 5.03.

In turn, `Clc1ccc(Oc2ccc(Cl)c(Cl)c2Cl)cc1Cl` showed a logP of 6.51.

Turning to `Clc1ccc(Oc2cccc(Cl)c2Cl)cc1`, the logP was 5.63.

In turn, `Clc1ccc(Oc2c(Cl)cc(Cl)c(Cl)c2Cl)c(Cl)c1` yielded a logP of 6.84.

`Clc1cc(Cl)c(Cl)c(Oc2cc(Cl)c(Cl)cc2Cl)c1`: the logP worked out at 6.76.

For the molecule `Clc1ccc(Oc2c(Cl)ccc(Cl)c2Cl)c(Cl)c1`, the logP was 6.06.

In the case of `Clc1c(Cl)c(Cl)c(Oc2c(Cl)c(Cl)c(Cl)c(Cl)c2Cl)c(Cl)c1Cl`, the logP worked out at 8.16.

`Clc1ccccc1Oc1ccccc1` registered a logP of 4.45.

Turning to `Clc1ccc(Oc2cc(Cl)c(Cl)c(Cl)c2)cc1`, the logP is 6.3.

As to `Clc1ccc(Oc2c(Cl)cccc2Cl)c(Cl)c1Cl`, the logP amounted to 6.11.

Regarding `Clc1ccc(Oc2ccccc2)cc1Cl`, the logP is 4.99.

The molecule `Clc1cc(Cl)c(Oc2ccccc2)c(Cl)c1` had a logP of 5.32.

On to `Clc1cc(Cl)c(Oc2ccc(Cl)c(Cl)c2Cl)cc1Cl`, for which the logP came to 7.01.

Molecule `Clc1cc(Cl)c(Oc2cc(Cl)c(Cl)c(Cl)c2Cl)cc1Cl` showed a logP of 7.46.

Molecule `Clc1ccc(Oc2cccc(Cl)c2)cc1` returned a logP of 5.13.

`Clc1ccc(Oc2c(Cl)ccc(Cl)c2Cl)cc1Cl` returned a logP of 6.31.

As to `Clc1ccc(Oc2c(Cl)c(Cl)cc(Cl)c2Cl)c(Cl)c1`, the logP was determined as 6.76.

Molecule `Clc1ccc(Oc2c(Cl)cc(Cl)cc2Cl)c(Cl)c1` gave a logP of 6.11.

For `Clc1cc(Oc2ccccc2)cc(Cl)c1Cl`, the logP worked out at 5.7.

In turn, `Clc1ccc(Oc2cc(Cl)c(Cl)cc2Cl)c(Cl)c1` gave a logP of 6.38.

In turn, `Clc1cccc(Oc2cc(Cl)c(Cl)cc2Cl)c1` showed a logP of 6.14.

For `Clc1ccc(Oc2cc(Cl)c(Cl)c(Cl)c2)c(Cl)c1`, the logP was determined as 6.63.

Molecule `Clc1ccc(Oc2c(Cl)cccc2Cl)cc1Cl` yielded a logP of 5.7.

The molecule `Clc1cc(Cl)c(Oc2c(Cl)c(Cl)cc(Cl)c2Cl)cc1Cl` yielded a logP of 7.13.

Molecule `Clc1cc(Cl)cc(Oc2ccc(Cl)c(Cl)c2Cl)c1` displayed a logP of 6.58.

The molecule `Clc1ccc(Oc2c(Cl)c(Cl)c(Cl)c(Cl)c2Cl)cc1Cl` returned a logP of 7.31.

Regarding `Clc1cc(Cl)cc(Oc2ccc(Cl)cc2Cl)c1`, the logP worked out at 6.13.

`Clc1ccc(Oc2cc(Cl)c(Cl)c(Cl)c2)cc1Cl` gave a logP of 6.83.

With `Clc1ccc(Oc2ccc(Cl)cc2Cl)cc1`, the logP turned out to be 5.53.

Consider `Clc1ccc(Oc2cccc(Cl)c2Cl)c(Cl)c1`, for which the logP amounted to 5.88.

On to `Clc1ccc(Oc2c(Cl)c(Cl)cc(Cl)c2Cl)cc1`, for which the logP amounted to 6.41.

`Clc1ccc(Oc2cc(Cl)c(Cl)cc2Cl)cc1Cl` returned a logP of 6.6.

Turning to `Clc1cc(Cl)c(Oc2c(Cl)c(Cl)c(Cl)c(Cl)c2Cl)cc1Cl`, the logP is 7.81.

For the molecule `Clc1cc(Cl)c(Oc2cccc(Cl)c2Cl)cc1Cl`, the lipophilicity (logP) worked out at 6.22.

`Clc1ccc(Oc2cc(Cl)c(Cl)cc2Cl)cc1` displayed a logP of 5.99.

The record behind these values is the SangsterLogP compilation.
